Consider 38 molecules from ChEMBL document CHEMBL5291721, “A preclinical secondary pharmacology resource illuminates target-adverse drug reaction associations of marketed drugs” (Nat Commun, 2023).

Format in all cases: functional, cell-based
Assay [1] has as its target T1, Alpha-1A adrenergic receptor (Homo sapiens, UniProt P35348).
T1 sequence (P35348 whole entry): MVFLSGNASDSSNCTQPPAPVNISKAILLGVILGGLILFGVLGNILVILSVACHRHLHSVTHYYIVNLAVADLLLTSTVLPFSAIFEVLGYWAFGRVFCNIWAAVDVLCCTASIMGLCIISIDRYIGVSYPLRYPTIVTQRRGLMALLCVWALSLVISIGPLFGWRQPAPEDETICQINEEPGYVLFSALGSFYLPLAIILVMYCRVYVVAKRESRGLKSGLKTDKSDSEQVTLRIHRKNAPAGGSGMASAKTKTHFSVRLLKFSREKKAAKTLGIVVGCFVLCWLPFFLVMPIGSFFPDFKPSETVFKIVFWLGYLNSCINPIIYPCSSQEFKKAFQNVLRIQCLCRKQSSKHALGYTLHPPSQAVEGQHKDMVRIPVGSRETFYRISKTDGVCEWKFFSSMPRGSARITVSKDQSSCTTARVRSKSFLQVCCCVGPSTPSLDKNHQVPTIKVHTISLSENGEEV

The target of assay [2] is T1, Alpha-1A adrenergic receptor. The source holds these as a separate data set.
Assay [3] addresses T2, Muscarinic acetylcholine receptor M1 (Homo sapiens, UniProt P11229).
T2 sequence (P11229 whole entry): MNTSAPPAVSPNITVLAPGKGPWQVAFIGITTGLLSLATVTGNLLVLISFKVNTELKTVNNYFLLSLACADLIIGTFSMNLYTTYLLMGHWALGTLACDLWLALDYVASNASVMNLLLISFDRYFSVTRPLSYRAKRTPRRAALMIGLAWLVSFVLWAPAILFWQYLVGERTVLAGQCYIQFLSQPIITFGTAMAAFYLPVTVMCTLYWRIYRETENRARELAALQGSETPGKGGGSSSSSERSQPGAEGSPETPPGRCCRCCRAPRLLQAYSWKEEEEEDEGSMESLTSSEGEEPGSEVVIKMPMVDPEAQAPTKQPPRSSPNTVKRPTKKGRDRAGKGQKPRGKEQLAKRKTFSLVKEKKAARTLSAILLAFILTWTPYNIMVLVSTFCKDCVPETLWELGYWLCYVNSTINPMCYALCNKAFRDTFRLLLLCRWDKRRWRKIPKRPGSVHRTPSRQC
Also: assay procedure not described here.

For `CC(C1=C(CCN(C)C)Cc2ccccc21)c1ccccn1` (centres undefined), the AC50 in assay [1] was greater than 30 µM; in assay [2] it was 8.8 µM; in assay [3], 7.57 µM.
`CC(=O)OC(C)OC(=O)C(C)c1ccc(-c2ccccc2)c(F)c1` (centres undefined): the AC50 in assay [1], in assay [2] and in assay [3] was greater than 30 µM each time.
Consider `C[C@H](N)C(=O)O` [ALANINE], for which the AC50 in assay [1], in assay [2] and in assay [3] was greater than 30 µM each time.
Turning to `O=C1c2c(O)cccc2Cc2cccc(O)c21` [ANTHRALIN], the half-maximal activity concentration (AC50) in assay [1], in assay [2] and in assay [3] was greater than 30 µM in each case.
Regarding `CNC(=O)C[C@@H](N)C(=O)N[C@@H](C(=O)N[C@@H]1C(=O)N2[C@@H]1SC(C)(C)[C@@H]2C(=O)O)c1ccc(O)cc1` [ASPOXICILLIN], the AC50 in assay [1], in assay [2] and in assay [3] was greater than 30 µM throughout.
`COC(=O)C1=C(C)NC(C)=C(C(=O)O[C@H]2CCN(Cc3ccccc3)C2)[C@H]1c1cccc([N+](=O)[O-])c1` [BARNIDIPINE]: the AC50 in assay [1] was greater than 30 µM; in assay [2], 1.31 µM; in assay [3], 4.07 µM.
On to `C[C@@H](O)[C@H]1C(=O)N2C(C(=O)[O-])=C(SC3Cn4cnc[n+]4C3)[C@H](C)[C@H]12` (some centres undefined) [BIAPENEM], for which the AC50 in assay [1], in assay [2] and in assay [3] was greater than 30 µM in each case.
With `CCCCOc1ccc(CC(=O)NO)cc1` [BUFEXAMAC], the AC50 in assay [1], in assay [2] and in assay [3] was greater than 30 µM in each case.
Take `Cc1nnc(SCC2=C(C(=O)O)N3C(=O)[C@@H](NC(=O)Cn4cc(Cl)c(=O)c(Cl)c4)[C@H]3SC2)s1` [CEFAZEDONE]: the concentration at half-maximal activity (AC50) in assay [1], in assay [2] and in assay [3] was greater than 30 µM throughout.
As to `Nc1ncnc(Nc2ccc(Cl)cc2)n1` [CHLORAZANIL], the AC50 in assay [1], in assay [2] and in assay [3] was greater than 30 µM each time.
Turning to `CCC[C@@H]1C[C@@H](C(=O)N[C@@H]([C@H]2O[C@H](SC)[C@H](OP(=O)(O)O)[C@@H](O)[C@H]2O)[C@H](C)Cl)N(C)C1` [CLINDAMYCIN PHOSPHATE], the AC50 in assay [1], in assay [2] and in assay [3] was greater than 30 µM each time.
As to `C[C@@H]1C[C@H]2[C@@H]3C[C@H](F)C4=CC(=O)C=C[C@]4(C)[C@@]3(Cl)[C@@H](O)C[C@]2(C)[C@H]1C(=O)COC(=O)C(C)(C)C` [CLOCORTOLONE PIVALATE], the AC50 in assay [1], in assay [2] and in assay [3] was greater than 30 µM in each case.
`O=P(O)(O)C(Cl)(Cl)P(=O)(O)O` [CLODRONIC ACID]: the AC50 in assay [1], in assay [2] and in assay [3] was greater than 30 µM in each case.
In the case of `Nc1ccncc1` [DALFAMPRIDINE], the values for the AC50 in assay [1], in assay [2] and in assay [3] were greater than 30 µM, greater than 30 µM and greater than 3 µM, respectively.
As to `Cc1onc(-c2c(Cl)cccc2Cl)c1C(=O)N[C@@H]1C(=O)N2[C@@H]1SC(C)(C)[C@@H]2C(=O)O` [DICLOXACILLIN], the AC50 in assay [1], in assay [2] and in assay [3] was greater than 30 µM in each case.
Take `C[C@@H](O)[C@H]1C(=O)N2C(C(=O)O)=C([C@H]3CCCO3)S[C@H]12` [FAROPENEM]: the AC50 in assay [1], in assay [2] and in assay [3] was greater than 30 µM in each case.
As to `CCOC(=O)c1ccc(OC(=O)CCCCCNC(=N)N)cc1` [GABEXATE], the AC50 in assay [1], in assay [2] and in assay [3] was greater than 30 µM each time.
With `CCCCC/C=C\C/C=C\C/C=C\CCCCC(=O)O` [GAMOLENIC ACID], the AC50 in assay [1], in assay [2] and in assay [3] was greater than 30 µM each time.
`COCCOc1cnc(NS(=O)(=O)c2ccccc2)nc1` [GLYMIDINE]: the half-maximal activity concentration (AC50) in assay [1], in assay [2] and in assay [3] was greater than 30 µM each time.
For `CC(N)CCCC(C)(C)O` (centres undefined) [HEPTAMINOL], the AC50 in assay [1], in assay [2] and in assay [3] was greater than 30 µM throughout.
Regarding `CCC(=O)O[C@]1(C(=O)COC(C)=O)CC[C@H]2[C@@H]3CCC4=CC(=O)CC[C@]4(C)[C@H]3[C@@H](O)C[C@@]21C` [HYDROCORTISONE ACEPONATE], the AC50 in assay [1] was greater than 30 µM; in assay [2] it was greater than 30 µM; in assay [3], 19.3 µM.
Consider `O=[N+]([O-])O[C@H]1CO[C@H]2[C@@H]1OC[C@H]2O[N+](=O)[O-]` [ISOSORBIDE DINITRATE], for which the AC50 in assay [1], in assay [2] and in assay [3] was greater than 30 µM in each case.
With `NC(=O)NCCC[C@H](N)C(=O)O` [L-CITRULLINE], the AC50 in assay [1], in assay [2] and in assay [3] was greater than 30 µM each time.
Consider `CC(=O)O[C@H]1C[C@H](O[C@H]2[C@@H](O)C[C@H](O[C@H]3[C@@H](O)C[C@H](O[C@H]4CC[C@@]5(C)[C@H](CC[C@@H]6[C@@H]5C[C@@H](O)[C@]5(C)[C@@H](C7=CC(=O)OC7)CC[C@]65O)C4)O[C@@H]3C)O[C@@H]2C)O[C@H](C)[C@H]1O[C@@H]1O[C@H](CO)[C@@H](O)[C@H](O)[C@H]1O` [LANATOSIDE C], for which the AC50 in assay [1], in assay [2] and in assay [3] was greater than 30 µM throughout.
In the case of `Nc1nc(N)nc(Nc2ccc([As]3SCC(CO)S3)cc2)n1` (centres undefined) [MELARSOPROL], the AC50 in assay [1] was greater than 30 µM; in assay [2], greater than 30 µM; in assay [3], 22.5 µM.
`CC[N+](C)(CC)CCOC(=O)C1c2ccccc2Oc2ccccc21` [METHANTHELINE]: the AC50 in assay [1] is greater than 30 µM; in assay [2] it was greater than 30 µM; in assay [3], 0.0287 µM.
For the molecule `CO[C@H]1[C@@H](O)C[C@H](O[C@H]2[C@@H](O)C[C@H](O[C@H]3[C@@H](O)C[C@H](O[C@H]4CC[C@@]5(C)[C@H](CC[C@@H]6[C@@H]5C[C@@H](O)[C@]5(C)[C@@H](C7=CC(=O)OC7)CC[C@]65O)C4)O[C@@H]3C)O[C@@H]2C)O[C@@H]1C` [METILDIGOXIN], the AC50 in assay [1], in assay [2] and in assay [3] was greater than 30 µM throughout.
`CC1(C)S[C@@H]2[C@H](NC(=O)[C@H](NC(=O)N3CCN(S(C)(=O)=O)C3=O)c3ccccc3)C(=O)N2[C@H]1C(=O)O` [MEZLOCILLIN]: the AC50 in assay [1], in assay [2] and in assay [3] was greater than 30 µM each time.
Take `CCOC(=O)[C@H](CCc1ccccc1)N[C@@H](C)C(=O)N1Cc2cc(OC)c(OC)cc2C[C@H]1C(=O)O` [MOEXIPRIL]: the concentration at half-maximal activity (AC50) in assay [1], in assay [2] and in assay [3] was greater than 30 µM each time.
Regarding `CC(c1ccc(Cl)c(Cl)c1)N1N=C(N)CC1=O` (centres undefined) [MUZOLIMINE], the AC50 in assay [1], in assay [2] and in assay [3] was greater than 30 µM throughout.
For `CCN(CC)CCOC(=O)C(Cc1cccc2ccccc12)CC1CCCO1` (centres undefined) [NAFRONYL], the AC50 in assay [1] was greater than 30 µM; in assay [2] it was greater than 30 µM; in assay [3], 24.2 µM.
Take `N[C@@H](Cc1c[nH]c2ccc(O)cc12)C(=O)O` [OXITRIPTAN]: the AC50 in assay [1], in assay [2] and in assay [3] was greater than 30 µM throughout.
With `C1CNCCN1` [PIPERAZINE], the AC50 in assay [1], in assay [2] and in assay [3] was greater than 30 µM in each case.
In the case of `c1cc(CN2CCCNCCNCCCNCC2)ccc1CN1CCCNCCNCCCNCC1` [PLERIXAFOR], the AC50 in assay [1], in assay [2] and in assay [3] was greater than 30 µM throughout.
As to `O=C(NC(Cc1cc(=O)[nH]c2ccccc12)C(=O)O)c1ccc(Cl)cc1` (centres undefined) [REBAMIPIDE], the half-maximal activity concentration (AC50) in assay [1], in assay [2] and in assay [3] was greater than 30 µM throughout.
Consider `CCCC(=O)O[C@H]1[C@H](C)O[C@@H](O[C@H]2[C@H](N(C)C)[C@@H](O)[C@H](O[C@H]3[C@@H](CC=O)C[C@@H](C)[C@@H](O)/C=C/C=C/C[C@@H](C)OC(=O)C[C@@H](O)[C@@H]3OC)O[C@@H]2C)C[C@@]1(C)OC(=O)CC` [ROKITAMYCIN], for which the AC50 in assay [1], in assay [2] and in assay [3] was greater than 30 µM throughout.
With `CCCCCCCCCCCCCCCCCC(=O)NCCCC[C@H](NC(=O)CC[C@@H](NC(=O)[C@H](C)NC(=O)[C@@H](C)O[C@H]1[C@H](O)[C@@H](CO)OC(O)[C@@H]1NC(C)=O)C(N)=O)C(=O)O` (some centres undefined) [ROMURTIDE], the AC50 in assay [1] is greater than 30 µM; in assay [2] it was 13.3 µM; in assay [3] it was 6.71 µM.
Taken in the same sequence, the figures for `CCOC(=O)[C@H](CCc1ccccc1)N[C@H]1CS[C@H](c2cccs2)CN(CC(=O)O)C1=O` [TEMOCAPRIL] were greater than 30 µM, greater than 30 µM and greater than 30 µM.
